Legend:
[1] = system: pterygium patients; experiment: Safety (adverse events) of 10% HP-β-CD vehicle in the Phase 2 pterygium clinical trial; conditions: 10% as vehicle in the Phase 2 pterygium clinical trial
Description: The data was derived from the stage 2 of the Phase 2 clinical trial in pterygium patients who were topically administered 10% HP-β-CD as the vehicle of the testing article. The patients were treated for 4 weeks with three-time a day dosing and then followed up for another 20 weeks after the stop of treatment. The safety evaluation included the 20 weeks of non-treatment period.
All safety analyses were conducted on the safety population. MedDRA nomenclature was used to code adverse events. The number and percent of patients reporting adverse events were tabulated based on preferred terms and/or system organ class. Summary tables were generated for all adverse events regardless of causality as well as for treatment-related adverse events.

[2] = Screening of CDs and CD derivatives for ability to dissolve cholesterol in water (HPLC); type: physicochemical; conditions: for Concentrations of Cholesterol in CDs Solution: 5 days shaking at ambient; for Ability to dissolve cholesterol in water: CD 1, 10, 20% (w/v)
Description: Purpose: To determine the level of cholesterol that can be dissolved in water when 10 different CDs and their derivatives were added at three concentrations.
All CD solutions were prepared with starting 20% (w/v) solutions by accurately adding about 800 mg CDs in 4 milliliter water, 1% and 10% were diluted from this 20% solution to 2 mL for each sample preparation experiment.
Cholesterol was added accurately to all CD water solutions at about 40 mg/mL or about 80 mg per 2 mL. This amount of cholesterol was enough to fully saturate the CD solutions with white settlements or floating or both. All samples were conditioned at ambient by shaking using a rotator for 5 days.
After the equilibration with shaking for 5 days at ambient, the clear or semi-clear portion was filtered with 0.2 μm filter. 50 μL of the filtered solution was diluted with 450 μL methanol (10 X) for HPLC analysis. NOVAPAK phenyl column (7.6 cm by 3.9 mm I.D.) was used with a mobile phase of acetonitrile: water (70:30) at a flow rate of 0.5 ml/min and detection at UV at 210 nm.

[3] = cited from earlier work; for Ability to form soluble complex with cholesterol in aqueous solution: 37° C., CDs 1.0 × 10^−2 M; for Increase in Absorbance (600 nm) Due to Cholesterol Dissolved by CDs: Aqueous solution at 37° C., concentration of CDs 1.0 × 10^−2 M
[4] = system: Patients with Primary or Recurrent Pterygium; experiment: Phase 2a clinical trial in pterygium patients: Pterygium Symptom and Life Quality (PSLQ) questionnaire scores; type: in vivo, human
Description: 2-HP-β-CD Formulation I was used as vehicle.
A trend of effects also remained after the stop of treatment at weeks 8, 16, and 24. The other questions didn't generate statistically significant effects.
These ocular symptoms are often observed in MGD patients. Scores of these symptoms were graded by patients as part of PSLQ questionnaires.

[5] = Baseline, Modified Intent-to-Treat Population, N = 23
[6] = Week 2, 10% (w/w) TID for 4 weeks, N = 23
[7] = Week 4, 10% (w/w) TID for 4 weeks, N = 23
[8] = Week 8 (after treatment period), N = 23
[9] = Week 16 (after treatment period), N = 23
[10] = Week 24 (after treatment period), N = 23

In the case of “2-Hydroxypropyl-beta-cyclodextrin [2-HP-β-CD]”, the “Safety profile” value [1] is reported as “excellent safety profile”, the “Concentrations of Cholesterol in CDs Solution” value (shortened to “Concentrations of Cholesterol”) ([2]; CD 1% (w/v) in water) is reported as 10 µg/mL and the “Ability to dissolve cholesterol in water” value [2] is reported as “substantial ability”. For the same compound, the “Concentrations of Cholesterol” value ([2]; CD 10% (w/v) in water) was 820 µg/mL, the “Concentrations of Cholesterol” value ([2]; CD 20% (w/v) in water) was 2980 µg/mL and the “Ability to form soluble complex with cholesterol in aqueous solution” value (“Ability to form soluble complex” for short) [3] was “only a weak ability”. The “Increase in Absorbance (600 nm) Due to Cholesterol Dissolved by CDs” value (from here on “Increase in Absorbance (600 nm) Due”) [3] was 0.01, the “PSLQ scores compared to the baseline” value ([4]; 2-HP-β-CD-treated group, N = 23) was “significant improvements” and the “Magnitude of reduction in PSLQ ocular symptom score, dry eye vs no dry eye patients” value ([4]; 10%, pterygium patients with vs without dry eye condition) was “statistically significant bigger”. The “PSLQ Average Ocular Symptom Score, Mean (SD)” value [4, 5] was 0.88 (0.81), the “PSLQ Average Quality of Life Impact Score, Mean (SD)” value [4, 5] was 0.57 (0.92) and the “PSLQ Average Vision-Related Functioning Score, Mean” value [4, 5] was 0.57. For the same compound, the “PSLQ Overall Average Score, Mean (SD)” value [4, 5] was 0.70 (0.66), the “PSLQ Average Ocular Symptom Score, Change from Baseline, Mean (SD)” value [4, 6] was −0.36 (0.69) and the “PSLQ Average Quality of Life Impact Score, Change from Baseline, Mean (SD)” value [4, 6] was −0.19 (0.39). The “PSLQ Average Vision-Related Functioning Score, Change from Baseline, Mean” value [4, 6] was −0.27, the “PSLQ Overall Average Score, Change from Baseline, Mean (SD)” value (shortened to “PSLQ Overall Average Score, Change … (SD)”) [4, 6] was −0.28 (0.45) and the “PSLQ Average Ocular Symptom Score, Change from Baseline, Mean (SD)” value [4, 7] was −0.46 (0.71). The “PSLQ Average Quality of Life Impact Score, Change from Baseline, Mean (SD)” value [4, 7] was −0.19 (0.50), the “PSLQ Average Vision-Related Functioning Score, Change from Baseline, Mean” value [4, 7] was −0.48 and the “PSLQ Overall Average Score, Change … (SD)” value [4, 7] was −0.35 (0.51). The “PSLQ Average Ocular Symptom Score, Change from Baseline, Mean (SD)” value [4, 8] was −0.39 (0.84), the “PSLQ Average Quality of Life Impact Score, Change from Baseline, Mean (SD)” value [4, 8] was −0.17 (0.52) and the “PSLQ Average Vision-Related Functioning Score, Change from Baseline, Mean” value [4, 8] was −0.43. The “PSLQ Overall Average Score, Change … (SD)” value [4, 8] was −0.30 (0.55), the “PSLQ Average Ocular Symptom Score, Change from Baseline, Mean (SD)” value [4, 9] was −0.29 (0.79) and the “PSLQ Average Quality of Life Impact Score, Change from Baseline, Mean (SD)” value [4, 9] was −0.13 (0.68). The “PSLQ Average Vision-Related Functioning Score, Change from Baseline, Mean” value [4, 9] was −0.23, the “PSLQ Overall Average Score, Change … (SD)” value [4, 9] was −0.20 (0.64) and the “PSLQ Average Ocular Symptom Score, Change from Baseline, Mean (SD)” value [4, 10] was −0.33 (0.90). The “PSLQ Average Quality of Life Impact Score, Change from Baseline, Mean (SD)” value [4, 10] was −0.15 (0.59), the “PSLQ Average Vision-Related Functioning Score, Change from Baseline, Mean” value [4, 10] was −0.11 and the “PSLQ Overall Average Score, Change … (SD)” value [4, 10] was −0.22 (0.73).

In the case of “2-hydroxypropyl-alpha-cyclodextrin [HP-ACD, reference compound]”, the “Ability to dissolve cholesterol in water” value [2] is reported as “no detectable cholesterol dissolving activity”.

For “2-hydroxypropyl-gamma-cyclodextrin [HP-GCD, reference compound]”, the “Ability to dissolve cholesterol in water” value [2] was “extremely low levels”, the “Concentrations of Cholesterol” value ([2]; CD 10% (w/v) in water) was 3 µg/mL and the “Concentrations of Cholesterol” value ([2]; CD 20% (w/v) in water) was 11 µg/mL.

In the case of `OC[C@H]1O[C@H](O[C@H]2[C@H](O)[C@@H](O)[C@@H](OC[C@H]3O[C@@H]4O[C@H]5[C@H](O)[C@@H](O)[C@@H](O[C@H]6[C@H](O)[C@@H](O)[C@@H](O[C@H]7[C@H](O)[C@@H](O)[C@@H](O[C@H]8[C@H](O)[C@@H](O)[C@@H](O[C@H]9[C@H](O)[C@@H](O)[C@@H](O[C@H]%10[C@H](O)[C@@H](O)[C@@H](O[C@H]3[C@H](O)[C@H]4O)O[C@@H]%10CO)O[C@@H]9CO)O[C@@H]8CO)O[C@@H]7CO)O[C@@H]6CO)O[C@@H]5CO)O[C@@H]2CO)[C@H](O)[C@@H](O)[C@@H]1O` [6-AM-BCD, 6-O-alpha-maltosyl-beta-cyclodextrin, reference compound], the “Concentrations of Cholesterol” value ([2]; CD 1% (w/v) in water) is reported as 30 µg/mL, the “Ability to dissolve cholesterol in water” value [2] is reported as “about half lower” and the “Concentrations of Cholesterol” value ([2]; CD 10% (w/v) in water) is reported as 2570 µg/mL. For the same compound, the “Concentrations of Cholesterol” value ([2]; CD 20% (w/v) in water) was 3380 µg/mL.

In the case of `OC[C@H]1O[C@@H]2O[C@H]3[C@H](O)[C@@H](O)[C@@H](O[C@H]4[C@H](O)[C@@H](O)[C@@H](O[C@H]5[C@H](O)[C@@H](O)[C@@H](O[C@H]6[C@H](O)[C@@H](O)[C@@H](O[C@H]7[C@H](O)[C@@H](O)[C@@H](O[C@H]1[C@H](O)[C@H]2O)O[C@@H]7CO)O[C@@H]6CO)O[C@@H]5CO)O[C@@H]4CO)O[C@@H]3CO` [ACD, alpha-cyclodextrin], the “Ability to form soluble complex” value [3] is given as “do not form soluble complexes” and the “Increase in Absorbance (600 nm) Due” value [3] is given as 0.

For `OC[C@H]1O[C@@H]2O[C@H]3[C@H](O)[C@@H](O)[C@@H](O[C@H]4[C@H](O)[C@@H](O)[C@@H](O[C@H]5[C@H](O)[C@@H](O)[C@@H](O[C@H]6[C@H](O)[C@@H](O)[C@@H](O[C@H]7[C@H](O)[C@@H](O)[C@@H](O[C@H]8[C@H](O)[C@@H](O)[C@@H](O[C@H]1[C@H](O)[C@H]2O)O[C@@H]8CO)O[C@@H]7CO)O[C@@H]6CO)O[C@@H]5CO)O[C@@H]4CO)O[C@@H]3CO` [BCD, beta-cyclodextrin], the “Ability to form soluble complex” value [3] is given as “do not form soluble complexes”.

For `COC[C@H]1O[C@@H]2O[C@H]3[C@H](O)[C@@H](OC)[C@@H](O[C@H]4[C@H](O)[C@@H](OC)[C@@H](O[C@H]5[C@H](O)[C@@H](OC)[C@@H](O[C@H]6[C@H](O)[C@@H](OC)[C@@H](O[C@H]7[C@H](O)[C@@H](OC)[C@@H](O[C@H]8[C@H](O)[C@@H](OC)[C@@H](O[C@H]1[C@H](O)[C@H]2OC)O[C@@H]8COC)O[C@@H]7COC)O[C@@H]6COC)O[C@@H]5COC)O[C@@H]4COC)O[C@@H]3COC` [DM-BCD, heptakis (2,6-di-O-methyl)-beta-cyclodextrin], the “Concentrations of Cholesterol” value ([2]; CD 1% (w/v) in water) was 190 µg/mL, the “Ability to dissolve cholesterol in water” value [2] was “the best” and the “Concentrations of Cholesterol” value ([2]; CD 10% (w/v) in water) was 5130 µg/mL. For the same compound, the “Concentrations of Cholesterol” value ([2]; CD 20% (w/v) in water) was 10430 µg/mL, the “Ability to form soluble complex” value [3] was “strong ability” and the “Increase in Absorbance (600 nm) Due” value [3] was 0.336.

In the case of `OC[C@H]1O[C@@H]2O[C@H]3[C@H](O)[C@@H](O)[C@@H](O[C@H]4[C@H](O)[C@@H](O)[C@@H](O[C@H]5[C@H](O)[C@@H](O)[C@@H](O[C@H]6[C@H](O)[C@@H](O)[C@@H](O[C@H]7[C@H](O)[C@@H](O)[C@@H](O[C@H]8[C@H](O)[C@@H](O)[C@@H](O[C@H]9[C@H](O)[C@@H](O)[C@@H](O[C@H]1[C@H](O)[C@H]2O)O[C@@H]9CO)O[C@@H]8CO)O[C@@H]7CO)O[C@@H]6CO)O[C@@H]5CO)O[C@@H]4CO)O[C@@H]3CO` [GCD, gamma-cyclodextrin], the “Ability to form soluble complex” value [3] is given as “do not form soluble complexes” and the “Increase in Absorbance (600 nm) Due” value [3] is given as 0.

In the case of `COC(=O)c1ccc2c(c1)NC(=O)/C2=C(\Nc1ccc(N(C)C(=O)CN2CCN(C)CC2)cc1)c1ccccc1` [Nintedanib, reference compound], the “PSLQ ocular symptom score, Nintedanib 0.2% vs Vehicle” value ([4]; pterygium patients with dry eye condition) is reported as “no statistically significant differences”.

In the case of random methyl-beta-cyclodextrin [M-BCD], the “Concentrations of Cholesterol” value ([2]; CD 1% (w/v) in water) is reported as 150 µg/mL, the “Ability to dissolve cholesterol in water” value [2] is reported as “the best” and the “Concentrations of Cholesterol” value ([2]; CD 10% (w/v) in water) is reported as 6030 µg/mL. For the same compound, the “Concentrations of Cholesterol” value ([2]; CD 20% (w/v) in water) was 14200 µg/mL.

In the case of “sulfobutylated beta-cyclodextrin [SBE-BCD]”, the “Concentrations of Cholesterol” value ([2]; CD 1% (w/v) in water) is reported as 2 µg/mL, the “Concentrations of Cholesterol” value ([2]; CD 10% (w/v) in water) is reported as 30 µg/mL and the “Concentrations of Cholesterol” value ([2]; CD 20% (w/v) in water) is reported as 150 µg/mL.

— patent US20220362282A1, “COMPOSITIONS AND METHODS FOR TREATING EYE DISEASES” (ADS THERAPEUTICS LLC, priority 2019, published 2022)
